Reference: patent US20250388573A1, “FUSED BICYCLIC EGFR INHIBITORS AND METHODS OF USE THEREOF” (Dana-Farber Cancer Institute, Inc., priority 2022, published 2025)
Blank lines part the entries; values can stand above or below the compound they belong to.

What was measured:
EGFR L858R = EGFR L858R (Homo sapiens (Human), UniProt P00533, L858R); experiment: HTRF-based EGFR biochemical assay, L858R; conditions: L858R 0.1 nM enzyme, 100 μM ATP; read-out: LR enzyme IC50
Description: (§1) EGFR biochemical activity measurements were carried out using the homogeneous time-resolved fluorescence (HTRF) assay (Cisbio). Inhibitors and DMSO normalizations were first dispensed to empty black low-volume 384-well plates (Corning) with D300 digital liquid dispenser (HP). All reactions were carried out at room temperature and solutions were added to plates with a Multidrop Combi Reagent Dispenser (ThermoFisher). The reaction mixture (10 µL final volume) contained 1 μM tyrosine kinase peptide-biotin substrate and mutant EGFR in a reaction buffer (50 mM HEPES pH 7.0, 5 mM MgCl2, 1 mM MnCl2, 0.01% BSA, 2 mM TCEP, 0.1 mM NaVO4). Enzyme concentrations were adjusted to accommodate varying kinase activities (L858R 0.1 nM, L858R/T790M 0.02 nM). Enzyme reaction solution (2× concentrations, 5 μL) was added to 384-well plates containing compounds and incubated for 30 mins. Enzyme reactions were initiated with the addition of 5 μL of ATP to a final concentration of 100 μM and reacted for 20 mins. Reactions were quenched with the addition of 10 μL of phospho-tyrosine antibody-Europium (III) cryptate (1-to-180 volume ratio) and Streptavidin-XL665 (46.7 nM) in EDTA-containing detection buffer, then incubated at room temperature for 1 hour, and read with a PHERAstar plate reader (excitation=337 nm, emission=620 nm and 665 nm). IC50 values were determined by inhibition curves (11-point curves from 1.0 μM to 0.130 nM or 23-point curves from 1.0 μM to 0.130 μM) in triplicate with non-linear least squares fit in GraphPad Prism 7.0d.

EGFR L858R/T790M = EGFR L858R/T790M (Homo sapiens (Human), UniProt P00533, L858R/T790M); experiment: HTRF-based EGFR biochemical assay, L858R/T790M; conditions: L858R/T790M 0.02 nM enzyme, 100 μM ATP; read-out: LRTM enzyme IC50
Sequence of EGFR L858R/T790M (P00533 25-1210 T790M/L858R): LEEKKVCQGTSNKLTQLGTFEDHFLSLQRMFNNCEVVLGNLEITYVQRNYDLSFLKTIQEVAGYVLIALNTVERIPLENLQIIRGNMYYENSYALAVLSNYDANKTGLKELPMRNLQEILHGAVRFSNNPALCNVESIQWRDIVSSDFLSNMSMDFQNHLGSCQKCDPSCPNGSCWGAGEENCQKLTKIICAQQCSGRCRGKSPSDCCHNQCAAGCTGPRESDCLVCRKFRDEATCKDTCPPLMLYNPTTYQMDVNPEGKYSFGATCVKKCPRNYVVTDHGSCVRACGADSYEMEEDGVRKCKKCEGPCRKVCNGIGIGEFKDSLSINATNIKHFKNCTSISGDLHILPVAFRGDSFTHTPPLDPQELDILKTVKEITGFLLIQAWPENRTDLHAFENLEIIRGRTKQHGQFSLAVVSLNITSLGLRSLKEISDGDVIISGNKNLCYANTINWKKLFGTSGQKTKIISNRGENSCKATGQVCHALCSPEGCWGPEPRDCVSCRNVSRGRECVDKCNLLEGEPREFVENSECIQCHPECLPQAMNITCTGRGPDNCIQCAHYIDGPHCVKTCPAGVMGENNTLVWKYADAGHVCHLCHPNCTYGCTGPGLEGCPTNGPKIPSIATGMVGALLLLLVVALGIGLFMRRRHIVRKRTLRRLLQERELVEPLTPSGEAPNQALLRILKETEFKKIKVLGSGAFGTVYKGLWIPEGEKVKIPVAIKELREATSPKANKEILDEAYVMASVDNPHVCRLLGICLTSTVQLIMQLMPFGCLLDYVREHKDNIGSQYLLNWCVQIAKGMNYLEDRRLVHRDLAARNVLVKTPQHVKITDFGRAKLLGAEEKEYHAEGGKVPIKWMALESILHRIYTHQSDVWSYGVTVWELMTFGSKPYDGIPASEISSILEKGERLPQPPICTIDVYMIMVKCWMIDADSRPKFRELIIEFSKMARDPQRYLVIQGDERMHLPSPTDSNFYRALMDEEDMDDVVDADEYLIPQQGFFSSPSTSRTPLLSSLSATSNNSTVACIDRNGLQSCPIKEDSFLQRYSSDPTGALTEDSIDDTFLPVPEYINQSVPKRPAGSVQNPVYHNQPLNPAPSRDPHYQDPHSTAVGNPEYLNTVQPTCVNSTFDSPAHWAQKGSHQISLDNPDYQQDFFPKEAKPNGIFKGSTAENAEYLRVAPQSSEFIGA
Description: as §1

[1] = test system: EGFR mutant L858R Ba/F3 cells; experiment: Ba/F3 cell proliferation (Cell Titer Glo), L858R; format: cell-based, murine; conditions: Mus musculus, BaF3, 72 hours, read-out: LR BaF3 cell IC50
Description: (§2) The EGFR mutant L858R and L858R/T790M Ba/F3 cells have been previously described (Zhou, W., et al. Nature 462, 2009, 1070-1074). All cell lines were maintained in RPMI 1640 (Cellgro; Mediatech Inc., Herndon, CA) supplemented with 10% FBS, 100 units/mL penicillin, 100 units/mL streptomycin. The EGFR 1941R mutation was introduced via site directed mutagenesis using the Quick Change Site-Directed Mutagenesis kit (Stratagene; La Jolla, CA) according to the manufacturer's instructions. All constructs were confirmed by DNA sequencing. The constructs were shuttled into the retroviral vector JP1540 using the Cre-recombination system (Agilent Technologies, Santa Clara, CA). Ba/F3 cells were then infected with retrovirus per standard protocols, as described previously (Zhou, et al, Nature 2009). Stable clones were obtained by selection in puromycin (2 μg/ml).
(§3) Growth and inhibition of growth was assessed by the Cell Titer Glo assay (Promega, Madison, WI) and was performed according to the manufacturer's instructions. The Cell Titer Glo assay is a luminescence-based method used to determine the number of viable cells based on quantitation of the ATP present, which is directly proportional to the amount of metabolically active cells present. Ba/F3 cells of different EGFR genotypes were exposed to the compounds disclosed herein for 72 hours and the number of cells used per experiment was determined empirically as has been previously established (Zhou, et al., Nature 2009). All experimental points were set up in triplicates in 384-well plates and all experiments were repeated at least three times. […] The curves were fitted using a non-linear regression model with a sigmoidal dose response.

[2] = test system: EGFR mutant L858R/T790M Ba/F3 cells; experiment: Ba/F3 cell proliferation (Cell Titer Glo), L858R/T790M; format: cell-based, murine; conditions: Mus musculus, BaF3, 72 hours, read-out: LRTM BaF3 cell IC50
Description: as §2, §3

Sequence of EGFR L858R (P00533 25-1210 L858R): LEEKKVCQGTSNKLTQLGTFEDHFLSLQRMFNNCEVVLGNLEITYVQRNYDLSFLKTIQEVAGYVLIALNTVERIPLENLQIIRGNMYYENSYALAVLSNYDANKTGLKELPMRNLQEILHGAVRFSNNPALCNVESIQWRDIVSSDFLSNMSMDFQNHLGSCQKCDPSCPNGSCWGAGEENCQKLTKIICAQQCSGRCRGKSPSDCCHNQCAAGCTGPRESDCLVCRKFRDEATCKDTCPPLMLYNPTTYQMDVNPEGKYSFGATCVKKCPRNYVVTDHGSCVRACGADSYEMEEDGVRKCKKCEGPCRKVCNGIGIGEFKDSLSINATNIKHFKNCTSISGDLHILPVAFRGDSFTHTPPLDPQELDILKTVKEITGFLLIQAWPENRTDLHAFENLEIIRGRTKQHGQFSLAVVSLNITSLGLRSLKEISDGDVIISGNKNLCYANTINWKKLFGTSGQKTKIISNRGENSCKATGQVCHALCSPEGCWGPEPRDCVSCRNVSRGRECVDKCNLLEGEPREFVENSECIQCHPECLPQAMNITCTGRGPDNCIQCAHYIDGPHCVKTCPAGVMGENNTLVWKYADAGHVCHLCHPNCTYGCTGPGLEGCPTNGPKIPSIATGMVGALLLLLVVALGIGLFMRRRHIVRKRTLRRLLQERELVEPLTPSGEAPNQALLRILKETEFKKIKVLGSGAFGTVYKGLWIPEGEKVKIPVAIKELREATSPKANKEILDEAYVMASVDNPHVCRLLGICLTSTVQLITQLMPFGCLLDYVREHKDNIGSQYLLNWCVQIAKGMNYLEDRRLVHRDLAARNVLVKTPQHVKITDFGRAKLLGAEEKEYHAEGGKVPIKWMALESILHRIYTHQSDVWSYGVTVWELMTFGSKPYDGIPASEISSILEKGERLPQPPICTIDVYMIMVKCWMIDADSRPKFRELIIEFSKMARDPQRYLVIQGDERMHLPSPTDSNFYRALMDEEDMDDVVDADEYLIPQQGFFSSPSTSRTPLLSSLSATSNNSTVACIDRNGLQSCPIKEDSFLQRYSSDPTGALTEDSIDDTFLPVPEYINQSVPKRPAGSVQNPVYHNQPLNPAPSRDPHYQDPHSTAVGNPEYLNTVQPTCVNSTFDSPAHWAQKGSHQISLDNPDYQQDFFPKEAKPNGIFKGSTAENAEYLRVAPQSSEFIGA

SMILES: CN1CCC(c2ccc(-c3ccc4c(c3)OCN(C(C(=O)Nc3nccs3)c3ccccc3)C4=O)cc2)CC1 (stereo not drawn) [Compound 004, 2-(7-(4-(1-Methylpiperidin-4-yl)phenyl)-4-oxo-2H-benzo[e][1,3]oxazin-3(4H)-yl)-2-phenyl-N-(thiazol-2-yl)acetamide]
IC50 (EGFR L858R): > 100 nM | IC50 (EGFR L858R/T790M): 21 nM

SMILES: CN1CCC(c2ccc(-c3ccc4c(c3F)C(=O)N(C(C(=O)Nc3nccs3)c3ccccc3)CO4)cc2)CC1 (stereo not drawn) [Compound 005, 2-(5-Fluoro-6-(4-(1-methylpiperidin-4-yl)phenyl)-4-oxo-2H-benzo[e][1,3]oxazin-3(4H)-yl)-2-phenyl-N-(thiazol-2-yl)acetamide]
IC50 (EGFR L858R): 3.7 nM | IC50 (EGFR L858R/T790M): 1 nM | IC50 [1]: 1040 nM | IC50 [2]: 460 nM

SMILES: CN1CCC(c2ccc(-c3ccc4c(c3)OCN(C(c3nc5ccccc5[nH]3)c3cc(F)ccc3O)C4=O)cc2)CC1 (stereo not drawn) [Compound 006, 3-((1H-Benzo[d]imidazol-2-yl) (5-fluoro-2-hydroxyphenyl)methyl)-7-(4-(1-methylpiperidin-4-yl)phenyl)-2,3-dihydro-4H-benzo[e][1,3]oxazin-4-one]
IC50 (EGFR L858R): 3.6 nM | IC50 (EGFR L858R/T790M): 0.9 nM | IC50 [1]: 1540 nM | IC50 [2]: 880 nM

SMILES: CN1CCC(c2ccc(-c3ccc4c(c3)C(=O)N(C(c3nc5ccccc5[nH]3)c3cc(F)ccc3O)CO4)cc2)CC1 (stereo not drawn) [Compound 007, 3-((1H-Benzo[d]imidazol-2-yl) (5-fluoro-2-hydroxyphenyl)methyl)-6-(4-(1-methylpiperidin-4-yl)phenyl)-2,3-dihydro-4H-benzo[e][1,3]oxazin-4-one 2,2,2-trifluoroacetate]
IC50 (EGFR L858R): 1.9 nM | IC50 (EGFR L858R/T790M): 0.7 nM | IC50 [1]: 470 nM | IC50 [2]: 220 nM

The next lines start with the values.

IC50 (EGFR L858R): 2.8 nM | IC50 (EGFR L858R/T790M): 0.4 nM | IC50 [1]: 1480 nM | IC50 [2]: 510 nM
SMILES: CN1CCC(c2ccc(-c3ccc4c(c3)C(=O)N(C(C(=O)Nc3nccs3)c3cccc(F)c3)CO4)cc2)CC1 (stereo not drawn) [Compound 001, 2-(3-Fluorophenyl)-2-(6-(4-(1-methylpiperidin-4-yl)phenyl)-4-oxo-2H-benzo[e][1,3]oxazin-3 (4H)-yl)-N-(thiazol-2-yl)acetamide]

IC50 (EGFR L858R): 23 nM | IC50 (EGFR L858R/T790M): 4 nM
SMILES: CN1CCN(c2ccc(-c3ccc4c(c3)C(=O)N(C(C(=O)Nc3nccs3)c3cccc(F)c3)CO4)cc2)CC1 (stereo not drawn) [Compound 002, 2-(3-Fluorophenyl)-2-(6-(4-(4-methylpiperazin-1-yl)phenyl)-4-oxo-2H-benzo[e][1,3]oxazin-3 (4H)-yl)-N-(thiazol-2-yl)acetamide]

IC50 (EGFR L858R): 23 nM | IC50 (EGFR L858R/T790M): 0.8 nM | IC50 [1]: 1250 nM | IC50 [2]: 460 nM
SMILES: CN1CCC(c2ccc(-c3ccc4c(c3)C(=O)N(C(C(=O)Nc3nccs3)c3ccccc3)CO4)cc2)CC1 (stereo not drawn) [Compound 003, 2-(6-(4-(1-Methylpiperidin-4-yl)phenyl)-4-oxo-2H-benzo[e][1,3]oxazin-3(4H)-yl)-2-phenyl-N-(thiazol-2-yl)acetamide]
